# Laboratory results: paper PMC9571063 (Molecules, 2022)
# Counter-ions that a name gives are not always drawn. Like-named read-outs stand apart in the source and are kept apart here.
# Assays:
# Rn_DYRK1A = biological target: T1, Rn_DYRK1A (Rattus norvegicus, UniProt Q63470); experiment: ADP-Glo kinase assay, primary screen; format: biochemical; settings: n=2, read-out: % of residual activity Rn_DYRK1A
# T1 construct: host or cells: bacteria
# Hs_CDK9/CyclinT = biological target: T2, Hs_CDK9/CyclinT (Homo sapiens, UniProt P50750); experiment: ADP-Glo kinase assay, primary screen; format: biochemical; settings: n=2, read-out: % of residual activity Hs_CDK9/CyclinT
# T2 construct: host or cells: Sf9 insect cells (baculovirus)
# MmCLK1 = biological target: T3, MmCLK1 (Mus musculus, UniProt P22518); experiment: ADP-Glo kinase assay; format: biochemical; settings: for remaining activity at 1 µM / remaining activity at 10 µM: n=2, read-out: % of residual activity Mm_CLK1
# T3 construct: host or cells: bacteria
# [1] = cytotoxic assay, nuclei count (Hoechst, HCS); format: cell-based; settings: human, HuH7 cells (hepatocellular carcinoma); 48 h treatment; read-out: Cytotoxic studies IC50 HuH7
# Hs_GSK3β = biological target: T4, Hs_GSK3β (Homo sapiens, UniProt P49841); experiment: ADP-Glo kinase assay, primary screen; format: biochemical; settings: n=2, read-out: % of residual activity Hs_GSK3β
# T4 construct: host or cells: Sf9 insect cells (baculovirus)
# Hs_CK1ε = biological target: T5, Hs_CK1ε (Homo sapiens, UniProt P49674); experiment: ADP-Glo kinase assay, primary screen; format: biochemical; settings: n=2, read-out: % of residual activity Hs_CK1ε
# T5 construct: host or cells: Sf9 insect cells (baculovirus)
# Hs_HASPIN = biological target: T6, Hs_HASPIN (Homo sapiens, UniProt Q8TF76); experiment: ADP-Glo kinase assay, primary screen; format: biochemical; settings: n=2, read-out: % of residual activity Hs_HASPIN
# T6 construct: host or cells: bacteria
# T6 sequence (Q8TF76 1-798): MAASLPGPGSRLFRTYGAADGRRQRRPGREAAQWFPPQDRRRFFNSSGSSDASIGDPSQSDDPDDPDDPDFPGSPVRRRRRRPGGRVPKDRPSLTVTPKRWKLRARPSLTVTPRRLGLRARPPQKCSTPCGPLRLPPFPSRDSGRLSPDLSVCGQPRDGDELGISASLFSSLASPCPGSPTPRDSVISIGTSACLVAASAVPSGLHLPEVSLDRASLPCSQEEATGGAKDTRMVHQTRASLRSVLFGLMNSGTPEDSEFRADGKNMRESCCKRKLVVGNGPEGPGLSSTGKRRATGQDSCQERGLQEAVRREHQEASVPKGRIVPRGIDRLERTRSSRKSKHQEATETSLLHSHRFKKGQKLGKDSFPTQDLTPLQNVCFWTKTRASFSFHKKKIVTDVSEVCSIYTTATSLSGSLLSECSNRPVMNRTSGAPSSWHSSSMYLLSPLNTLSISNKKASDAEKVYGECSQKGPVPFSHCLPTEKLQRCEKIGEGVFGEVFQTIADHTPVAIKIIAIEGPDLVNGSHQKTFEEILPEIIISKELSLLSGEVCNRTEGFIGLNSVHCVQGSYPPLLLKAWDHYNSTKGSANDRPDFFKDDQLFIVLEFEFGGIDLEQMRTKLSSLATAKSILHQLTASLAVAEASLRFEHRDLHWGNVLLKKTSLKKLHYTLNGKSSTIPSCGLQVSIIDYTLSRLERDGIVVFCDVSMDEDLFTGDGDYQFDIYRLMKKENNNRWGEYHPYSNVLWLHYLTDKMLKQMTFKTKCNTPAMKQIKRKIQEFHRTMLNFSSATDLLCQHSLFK
# Hs_CDK5/p25 = biological target: T7, Hs_CDK5/p25 (Homo sapiens, UniProt Q00535); experiment: ADP-Glo kinase assay, primary screen; format: biochemical; settings: n=2, read-out: % of residual activity Hs_CDK5/p25
# T7 construct: host or cells: bacteria
# [2] = cytotoxic assay, nuclei count (Hoechst, HCS); format: cell-based; settings: human, Caco-2 cells (colorectal adenocarcinoma); 48 h treatment; read-out: Cytotoxic studies IC50 Caco2
# [3] = cytotoxic assay, nuclei count (Hoechst, HCS); format: cell-based, human; settings: human, human skin fibroblasts (non-cancerous reference cells); 48 h treatment; some cells add low/moderate/high amplitude; read-out: Cytotoxic studies IC50 Fibroblasts
# Procedure: (§1) To complete our study, we performed a cytotoxicity screening of the 15 molecules, investigating 7 representative cancer cell lines. The compound’s effect on cell viability was evaluated on Huh-7 (hepatocellular carcinoma), CaCo2, HCT-116 (colorectal adenocarcinoma), MCF7, MDA-MB231, MDA-MB468 (breast carcinoma), PC3 (prostate carcinoma) and NCI-H727 (lung carcinoid). Human skin fibroblasts were used as reference for non-cancerous cells. Roscovitine, Doxorubicin and Taxol were used as positive controls. The cells were treated for 48 h with 25 µM compounds and fixed in cooled 90% ethanol/5% acetic acid for 20 min. The nuclei were stained with Hoechst 33342 and counted using HCS technology.
# (§2) HuH7, CaCo-2, MDA-MB-231, HCT116, PC3, MCF7 and NCI-H727 cancer cell lines were obtained from the ECACC collection (Porton Down, UK). Cells were grown at 37 °C, 5% CO2 in ECACC recommended media: DMEM for HuH7, MDA-MB-231 and fibroblast, EMEM for MCF7and CaCo-2, McCoy’s for HCT116 and RPMI for PC3 and NCI-H727. All culture media were supplemented with 10% of FBS, 1% of penicillin-streptomycin and 2 mM glutamine.
# (§3) Chemicals were solubilized in DMSO at a concentration of 10 mM (stock solution) and diluted in culture medium to the desired final concentrations.
# (§4) The cytotoxic assay of chemical was performed at 25 µM. Cells were plated in 96 wells plates (4000 cells/well). Twenty-four hours after seeding, cells were exposed to chemicals. After 48 h of treatment, cells were washed in PBS and fixed in cooled 90% ethanol/5% acetic acid for 20 min and the nuclei were stained with Hoechst 33342 (B2261 Sigma). Image acquisition and analysis were performed using a CellomicsArrayScan VTI/HCS Reader (ThermoScientific, Waltham, MA, USA). The survival percentages were calculated as the percentage of cell number after compound treatment over cell number after DMSO treatment.
# [4] = cytotoxic assay, nuclei count (Hoechst, HCS); format: cell-based; settings: human, MCF7 cells (breast carcinoma); 48 h treatment; read-out: Cytotoxic studies IC50 MCF7
# Procedure: as §1, §2, §3, §4
# HsDYRK1A = biological target: T8, HsDYRK1A (Homo sapiens, UniProt Q13627); experiment: ADP-Glo kinase assay; format: biochemical; settings: for remaining activity at 1 µM / remaining activity at 10 µM: n=2, read-out: % of residual activity Hs_DYRK1A
# T8 construct: host or cells: Sf9 insect cells (baculovirus)
# [5] = cytotoxic assay, nuclei count (Hoechst, HCS); format: cell-based; settings: human, 48 h treatment
# Procedure: as §1, §2, §3
# as §4, with “The cytotoxic assay of chemical was performed at 25 µM.” left out
# [6] = cytotoxic assay, nuclei count (Hoechst, HCS); format: cell-based; settings: human, MDA-MB-231 cells (breast carcinoma); 48 h treatment; read-out: Cytotoxic studies IC50 MDA-MB-231
# Hs_PIM1 = biological target: T9, Hs_PIM1 (Homo sapiens, UniProt P11309); experiment: ADP-Glo kinase assay, primary screen; format: biochemical; settings: n=2, read-out: % of residual activity Hs_PIM1
# T9 construct: host or cells: Sf9 insect cells (baculovirus)
# [7] = HCT116 cells (colorectal adenocarcinoma), read-out: Cytotoxic studies IC50 HCT116
# [8] = MDA-MB-468 cells (breast carcinoma), read-out: Cytotoxic studies IC50 MDA-MB-468
# T5 sequence (P49674 whole entry): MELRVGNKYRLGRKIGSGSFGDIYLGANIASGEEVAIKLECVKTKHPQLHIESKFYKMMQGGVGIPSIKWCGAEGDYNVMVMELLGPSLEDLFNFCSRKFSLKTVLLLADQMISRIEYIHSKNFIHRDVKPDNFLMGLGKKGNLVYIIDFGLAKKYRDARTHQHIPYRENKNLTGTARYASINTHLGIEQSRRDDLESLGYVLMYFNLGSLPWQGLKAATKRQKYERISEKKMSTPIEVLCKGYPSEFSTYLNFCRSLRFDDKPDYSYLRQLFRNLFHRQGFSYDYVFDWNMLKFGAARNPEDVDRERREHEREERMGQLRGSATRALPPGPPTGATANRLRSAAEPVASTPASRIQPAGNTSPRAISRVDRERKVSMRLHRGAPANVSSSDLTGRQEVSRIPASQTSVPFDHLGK
# T2 sequence (P50750 whole entry): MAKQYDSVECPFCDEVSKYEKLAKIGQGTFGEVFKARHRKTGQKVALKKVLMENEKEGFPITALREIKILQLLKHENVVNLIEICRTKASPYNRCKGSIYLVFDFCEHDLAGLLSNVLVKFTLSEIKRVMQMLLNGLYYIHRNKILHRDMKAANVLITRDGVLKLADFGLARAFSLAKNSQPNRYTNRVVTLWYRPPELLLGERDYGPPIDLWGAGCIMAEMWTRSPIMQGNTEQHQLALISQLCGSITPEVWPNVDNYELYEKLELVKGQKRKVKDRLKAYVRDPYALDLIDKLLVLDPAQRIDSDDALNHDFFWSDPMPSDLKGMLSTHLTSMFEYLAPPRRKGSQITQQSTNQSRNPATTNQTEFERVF
# T2 sequence (O60563 whole entry partner): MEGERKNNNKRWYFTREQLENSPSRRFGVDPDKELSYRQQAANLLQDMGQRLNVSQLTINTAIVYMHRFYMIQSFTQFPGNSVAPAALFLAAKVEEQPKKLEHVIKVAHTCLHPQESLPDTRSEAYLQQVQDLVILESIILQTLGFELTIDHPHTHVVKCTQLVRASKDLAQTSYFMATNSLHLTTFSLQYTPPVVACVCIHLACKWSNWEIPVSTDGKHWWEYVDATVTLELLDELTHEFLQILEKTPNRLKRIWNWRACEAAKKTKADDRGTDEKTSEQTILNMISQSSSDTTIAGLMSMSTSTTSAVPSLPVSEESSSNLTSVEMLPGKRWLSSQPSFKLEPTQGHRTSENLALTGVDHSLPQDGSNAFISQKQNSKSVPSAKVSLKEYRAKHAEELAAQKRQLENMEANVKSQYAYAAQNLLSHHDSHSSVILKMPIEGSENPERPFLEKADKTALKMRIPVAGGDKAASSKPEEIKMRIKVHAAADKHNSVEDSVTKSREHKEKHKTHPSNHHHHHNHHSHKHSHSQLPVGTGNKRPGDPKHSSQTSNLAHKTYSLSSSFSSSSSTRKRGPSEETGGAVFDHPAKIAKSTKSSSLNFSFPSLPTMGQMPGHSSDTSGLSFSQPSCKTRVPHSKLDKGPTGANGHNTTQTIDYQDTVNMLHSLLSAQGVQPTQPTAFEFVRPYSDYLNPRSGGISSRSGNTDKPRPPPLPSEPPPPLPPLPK
# T4 sequence (P49841 whole entry): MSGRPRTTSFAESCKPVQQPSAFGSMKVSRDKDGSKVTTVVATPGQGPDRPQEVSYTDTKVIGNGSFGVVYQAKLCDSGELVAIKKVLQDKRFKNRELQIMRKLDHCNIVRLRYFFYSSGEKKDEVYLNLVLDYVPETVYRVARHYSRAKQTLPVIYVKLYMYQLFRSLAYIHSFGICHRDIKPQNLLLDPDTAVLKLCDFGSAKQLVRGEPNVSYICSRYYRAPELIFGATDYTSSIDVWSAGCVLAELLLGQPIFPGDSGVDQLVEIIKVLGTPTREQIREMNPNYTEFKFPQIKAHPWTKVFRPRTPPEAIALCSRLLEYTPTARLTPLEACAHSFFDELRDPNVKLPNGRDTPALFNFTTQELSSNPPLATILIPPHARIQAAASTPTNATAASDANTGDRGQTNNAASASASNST
# T9 sequence (P11309 whole entry): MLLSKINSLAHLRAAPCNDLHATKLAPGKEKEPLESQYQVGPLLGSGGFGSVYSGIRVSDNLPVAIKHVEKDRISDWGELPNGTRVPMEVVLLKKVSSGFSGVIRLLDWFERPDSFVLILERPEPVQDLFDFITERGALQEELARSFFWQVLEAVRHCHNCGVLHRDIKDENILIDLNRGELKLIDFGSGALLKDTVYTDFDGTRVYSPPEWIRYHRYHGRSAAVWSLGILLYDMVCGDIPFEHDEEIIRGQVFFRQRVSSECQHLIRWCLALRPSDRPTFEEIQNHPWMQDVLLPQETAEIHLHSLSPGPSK
# T7 sequence (Q00535 whole entry): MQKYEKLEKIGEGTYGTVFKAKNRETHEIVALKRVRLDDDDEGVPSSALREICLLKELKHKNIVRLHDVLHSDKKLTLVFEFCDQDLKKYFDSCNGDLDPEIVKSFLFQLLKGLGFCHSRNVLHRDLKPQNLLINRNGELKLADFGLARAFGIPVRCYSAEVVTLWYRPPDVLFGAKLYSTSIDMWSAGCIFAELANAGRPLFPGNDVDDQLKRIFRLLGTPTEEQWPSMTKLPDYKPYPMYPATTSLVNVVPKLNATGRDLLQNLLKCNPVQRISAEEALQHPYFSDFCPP
# T7 sequence (Q15078 99-307 partner limits assumed): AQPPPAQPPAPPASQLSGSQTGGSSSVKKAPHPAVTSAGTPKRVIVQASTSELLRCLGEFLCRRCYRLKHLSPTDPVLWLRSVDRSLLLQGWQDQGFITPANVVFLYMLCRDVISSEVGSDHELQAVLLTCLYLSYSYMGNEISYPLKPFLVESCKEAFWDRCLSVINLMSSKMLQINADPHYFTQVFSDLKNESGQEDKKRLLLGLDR
# T3 sequence (P22518 whole entry): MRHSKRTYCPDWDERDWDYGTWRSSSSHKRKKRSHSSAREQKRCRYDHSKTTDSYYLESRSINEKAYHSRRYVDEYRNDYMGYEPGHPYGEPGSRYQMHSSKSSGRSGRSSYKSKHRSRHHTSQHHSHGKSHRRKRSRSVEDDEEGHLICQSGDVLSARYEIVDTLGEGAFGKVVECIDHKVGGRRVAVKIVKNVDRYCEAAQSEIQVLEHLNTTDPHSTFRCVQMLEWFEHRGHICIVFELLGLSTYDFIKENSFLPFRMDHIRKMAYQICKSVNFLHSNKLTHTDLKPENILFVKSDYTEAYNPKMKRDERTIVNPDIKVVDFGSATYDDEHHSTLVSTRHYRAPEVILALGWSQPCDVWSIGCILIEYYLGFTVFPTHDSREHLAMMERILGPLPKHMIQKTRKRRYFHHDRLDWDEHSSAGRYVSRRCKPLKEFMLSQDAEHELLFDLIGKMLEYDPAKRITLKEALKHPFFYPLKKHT
Compound,remaining activity at 1 µM (Rn_DYRK1A) [%],remaining activity at 10 µM (Rn_DYRK1A) [%],remaining activity at 1 µM (Hs_CDK9/CyclinT) [%],remaining activity at 10 µM (Hs_CDK9/CyclinT) [%],remaining activity at 1 µM (MmCLK1) [%],remaining activity at 10 µM (MmCLK1) [%],IC50 at 48 h [1] [µM],remaining activity at 1 µM (Hs_GSK3β) [%],remaining activity at 10 µM (Hs_GSK3β) [%],remaining activity at 1 µM (Hs_CK1ε) [%],remaining activity at 10 µM (Hs_CK1ε) [%],remaining activity at 1 µM (Hs_HASPIN) [%],remaining activity at 10 µM (Hs_HASPIN) [%],remaining activity at 1 µM (Hs_CDK5/p25) [%],remaining activity at 10 µM (Hs_CDK5/p25) [%],IC50 at 48 h [2] [µM],IC50 at 48 h [3] [µM],IC50 at 48 h [4] [µM],remaining activity at 1 µM (HsDYRK1A) [%],remaining activity at 10 µM (HsDYRK1A) [%],other results
"N[C@H]1CC[C@@H](n2cc(COc3cccc4cnc(Nc5cccc(Cl)c5)nc34)nn2)CC1 [16a, 8-((1-((cis)-4-Aminocyclohexyl)-1H-1,2,3-triazol-4-yl)methoxy)-N-(3-chlorophenyl)quinazolin-2-amine hydrochloride]",82,33,68,12,17,8,8,32,49,87,21,72,31,75,36,9,9,8,84,36,"IC50 (MmCLK1; mouse CLK1 orthologue, read-out: IC50 MmCLK1): 0.22 µM; IC50 (HsDYRK1A; 10 µM ATP, duplicate): 2.76 µM; IC50 at 48 h [5, 7]: 10 µM; IC50 at 48 h [5, 8]: 9 µM; IC50 at 48 h [6]: 9 µM; remaining activity at 1 µM (Hs_PIM1): 54%; remaining activity at 10 µM (Hs_PIM1): 14%"
"CC(C)(C)OC(=O)N[C@H]1CC[C@H](n2cc(COc3cccc4cnc(Nc5cccc(Cl)c5)nc34)nn2)CC1 [18a, tert-Butyl ((trans)-4-(4-(((2-((3-chlorophenyl)amino)quinazolin-8-yl)oxy)methyl)-1H-1,2,3-triazol-1-yl)cyclohexyl)carbamate]",92,≥ 100,92,59,93,70,4,88,60,≥ 100,78,77,70,69,58,16,> 25,> 25,≥ 100,66,"IC50 at 48 h [5, 7]: 5 µM; IC50 at 48 h [5, 8]: 15 µM; IC50 at 48 h [6]: 7 µM; remaining activity at 1 µM (Hs_PIM1): 77%; remaining activity at 10 µM (Hs_PIM1): 74%"
"CC(C)(C)OC(=O)N[C@H]1CC[C@@H](n2cc(COc3cccc4cnc(Nc5cccc(Cl)c5)nc34)nn2)CC1 [15a, tert-Butyl ((cis)-4-(4-(((2-((3-chlorophenyl)amino)quinazolin-8-yl)oxy)methyl)-1H-1,2,3-triazol-1-yl)cyclohexyl)carbamate]",≥ 100,97,64,55,98,60,7,≥ 100,86,≥ 100,97,92,74,≥ 100,96,> 25,> 25,23,95,63,"IC50 at 48 h [5, 7]: 7 µM; IC50 at 48 h [5, 8]: 18 µM; IC50 at 48 h [6]: 3 µM; remaining activity at 1 µM (Hs_PIM1): 86%; remaining activity at 10 µM (Hs_PIM1): 74%"
